Data reported in PubChem BioAssay (NCI).
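Assay format: 96-well plates, 48-hour exposure. TGI: total growth inhibition.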

Assays:
Test in all cases: NCI anticancer screen, dose series, 48 h
[1] = system: CAKI-1 renal
[2] = system: UO-31 renal
[3] = system: SNB-75 CNS
[4] = system: HCC-2998 colon
[5] = system: SF-539 CNS
[6] = system: TK-10 renal
[7] = system: PC-3 prostate
[8] = system: RXF 393 renal
[9] = system: MDA-N
[10] = system: OVCAR-5 ovarian
[11] = system: HOP-62 NSCLC
[12] = system: MALME-3M melanoma
[13] = system: MDA-MB-231 breast
[14] = system: SN12C renal
[15] = system: UACC-257 melanoma
[16] = system: U251 CNS
[17] = system: MDA-MB-435
[18] = system: NCI-H23 lung
[19] = system: MOLT-4 leukemia
[20] = system: LOX IMVI melanoma
[21] = system: UACC-62 melanoma
[22] = system: EKVX NSCLC
[23] = system: OVCAR-4 ovarian
[24] = system: BT-549 breast
[25] = system: HCT-15 colon
[26] = system: ACHN renal
[27] = system: NCI/ADR-RES ovarian
[28] = system: NCI-H226 lung
[29] = system: HL-60(TB) leukemia
[30] = system: HS 578T breast
[31] = system: NCI-H522 lung
[32] = system: KM12 colon
[33] = system: COLO 205 colon
[34] = system: OVCAR-8 ovarian
[35] = system: M14 melanoma
[36] = system: SW-620 colon
[37] = system: SK-MEL-28 melanoma
[38] = system: RPMI-8226 leukemia
[39] = system: IGROV1 ovarian
[40] = system: SR leukemia
[41] = system: HCT-116 colon
[42] = system: A549 NSCLC
[43] = system: SNB-19 CNS
[44] = system: SK-OV-3 ovarian
[45] = system: K-562 leukemia
[46] = system: HOP-92 NSCLC
[47] = system: SK-MEL-2 melanoma
[48] = system: NCI-H460 lung
[49] = system: SF-295 CNS
[50] = system: HT29 colon
[51] = system: OVCAR-3 ovarian
[52] = system: MCF7 breast
[53] = system: T-47D breast
[54] = system: SK-MEL-5 melanoma
[55] = system: 786-0 renal
[56] = system: DU-145 prostate
[57] = system: SF-268 CNS
[58] = system: A498 renal

Measured: TGI

FC(F)(F)c1nc(SCc2ccc(Cl)cc2)n[nH]1
> 100 µM: all assays above

O=C(O)/C=C/c1ccc(OS(=O)(=O)O)cc1
> 100 µM: all assays above
